According to PubChem BioAssay (NCI):
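Assay format: 96-well plates, 48-hour exposure. At the GI50, growth is halved. TGI is the concentration that stops growth completely.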

Key:
Assay in all cases: DTP human tumour cell line panel, 48 h
[1] = system: A498 renal
[2] = system: ACHN renal
[3] = system: HCC-2998 colon
[4] = system: HT29 colon
[5] = system: KM12 colon
[6] = system: MDA-N
[7] = system: SK-MEL-28 melanoma
[8] = system: T-47D breast
[9] = system: U251 CNS
[10] = system: MOLT-4 leukemia

Compound	TGI [1] [µM]	TGI [2] [µM]	TGI [3] [µM]	TGI [4] [µM]	TGI [5] [µM]	TGI [6] [µM]	TGI [7] [µM]	TGI [8] [µM]	TGI [9] [µM]	TGI [10] [µM]	GI50 [1] [µM]	GI50 [2] [µM]	GI50 [3] [µM]	GI50 [4] [µM]	GI50 [5] [µM]	GI50 [10] [µM]	GI50 [7] [µM]	GI50 [8] [µM]	GI50 [9] [µM]
O=C(CN1CCCCC1)CC(O)(C(F)(F)F)C(F)(F)F	> 100	> 100	> 100	> 100	> 100	> 100	> 100	> 100	> 100										
O=C1CCC(=Nc2ccc(Cl)cc2)N1C(=O)COc1ccc(OCC(=O)N2C(=O)CSC2=Nc2ccc(Cl)cc2)cc1	> 100	> 100	> 100	> 100	> 100	> 100	> 100	> 100	> 100										
CN(C)c1ccc(-c2c(C#N)c(S)n(NS(=O)(=O)c3ccccc3)c(=O)c2C#N)cc1	> 100	> 100	> 100		47.7	86.5	> 100		> 100	> 100									
Cc1nn(C(=O)Cc2ccccc2)c2c1C(c1ccccc1O)SC(N)=N2 (stereo not given)	> 100	> 100	> 100	> 100	> 100		> 100	> 100		> 100									
O=C(O)C1CC(c2ccc(F)cc2)=Nc2ccc(F)cc2S1 (stereo not given)	> 100	> 100	> 100	> 100	> 100	> 100	> 100	> 100		> 100									
CN(C)NC(=S)Nc1ccccc1Br	> 100	> 100		> 100	> 100	> 100	> 100	> 100	> 100	> 100									
COc1ccc2c(c1)O/C(=C\c1cccc(OCC(=O)Nc3nc4c(s3)CCCC4)c1)C2=O	> 100	33.6	> 100	> 100	> 100		> 100	> 100	8.31	98.7	> 42.5	4.43	> 100	25.1	10.4	4.5	> 100	6.39	2.8
COc1ccc(CC(CO)NC(=O)OCc2ccccc2)cc1Oc1ccc(CC(CO)NC(=O)OCc2ccccc2)cc1 (stereo not given)	34.9		93.6	23.6	26.9	54.1	54.9		63.9	34.5									
COC(=O)NN(C(=O)OC)c1c(-c2ccccc2)nc(SC)n1N	> 100	> 100	> 100		> 100	> 100	> 100	> 100	> 100	> 100									
Cc1cc(C)c2c(=O)n(CN3CC4Nc5ccccc5C4C3)sc2n1 (stereo not given)	> 100	33.8		46.1	> 100	44.3	82.3	> 100	> 100	95.3									
CC(=O)N/N=C1/NN(C(C)=O)C2(S1)C(=O)Nc1ccc(Br)cc12 (stereo not given)	> 100	> 100	> 100	> 100	> 100		> 100	> 100	> 100	> 100									
